# Test results from US20260306641A1, “HELICASE DEGRADERS” (priority 2023, published 2026).
# How the values were obtained:
# [1] = tested on: Dbf4-Cdc7 (DDK); Mcm2 S53 and S139; assay: Immunoblot of DDK-dependent Mcm2 phosphorylation, HaCaT cells; format: cell-based, human; conditions: extended exposure (18 hrs)
# Experimental: (§1) Immunoblots of total proteins from synchronized HaCaT cells treated with compounds at time of release (0 hr; beginning of G1 phase) and collected after 18 hrs of exposure. (FIG. 5A) DDK-dependent phosphorylation sites on Mcm2 were analyzed with phospho-specific antibodies. (FIG. 5B) Cdk1- and Cdk2-dependent targets (Rb, Cdc6, and PP1α) were analyzed with phospho-specific antibodies.
# [2] = tested on: Cdk1 and Cdk2 targets (Rb, Cdc6, PP1a); assay: Immunoblot of Cdk1/Cdk2-dependent targets, HaCaT cells; format: cell-based, human; conditions: extended exposure (18 hrs)
# Experimental: as §1
# [3] = tested on: bacterial type-2 topoisomerase, gyrase; conditions: cited from earlier work
# [4] = tested on: HaCaT cells; assay: DNA damage (gamma-H2AX) and apoptosis (cleaved Parp) immunoblot, HaCaT; format: cell-based, human; conditions: 15 μM, 48 hrs
# Experimental: FIGS. 7A-7C depict that CMGi induce DNA damage and selectively reduce tumor cell viability. (FIG. 7A) Cell Titer Glo viability assays for CA1/CMGi sensitivity were performed on 143B (OS), Psn1 (PDAC), and H460 (NSCLC) tumor lines. Novobiocin was tested against 143B cells as a comparison. (FIG. 7B) Immunoblot of chromatin-bound proteins (as indicated) from asynchronous 143B OS cells treated with 10 μM novobiocin or increasing concentrations of CA1 for 24 hrs. (FIG. 7C) Immunoblot of total proteins from Psn1, H460, 143B, and HaCaT cells treated with 5 μM CA1/CMGi or DMSO/novobiocin controls, or HaCaT treated with 15 μM CA1/CMGi (right side). The Psn1 and H460 cells were treated for 24 hrs, and 143B and HaCaT cells were treated for 48 hrs. Probing of blots was done with anti-gamma-H2AX (DNA damage signal) or anti-cleaved-Parp (apoptotic indicator). Anti-GAPDH is a loading control.
# [5] = tested on: Psn1, H460 and 143B tumor lines; assay: CellTiter-Glo viability, tumor lines; format: cell-based, human
# Experimental: Human keratinocytes (HaCaT; RRID:CVCL_0038), 143B cells (osteosarcoma; RRID:CVCL_2270), and HEK-293T (RRID:CVCL_0063) cells were maintained in Dulbecco's Modified Eagle's Medium (DMEM) supplemented with 10% fetal bovine serum (FBS; Peak Serum, PS-FB-2). Human Psn1 (pancreatic ductal adenocarcinoma; RRID:CVCL_1644) and H460 (non-small cell lung carcinoma; RRID:CVCL_0459) cells were cultured in RPMI-1640 medium supplemented with 10% FBS. HaCaT cells were synchronized in Go using serum starvation for 48 hr and released into the cell cycle by addition of DMEM with 10% FBS (51). Novobiocin (cat #46531) and Courmermycin-A1 (cat #C9270) were obtained from Sigma. Etoposide (cat #S1225) and AT7519 (cat #S1524) were obtained from SelleckChem. All stock solutions of inhibitors were stored at −20° C. as 10 mM suspensions in DMSO.
# Cell viability determinations were performed using CellTiter-Glo Assays (Promega; cat #G7572). Cells were seeded in 96-well plates at a density of ~3×10^3 cells/well and treated with drugs for 72 hr, after which the cells were processed for viability using CellTiter-Glo reagent according to the instructions of the manufacturer. Each drug concentration test was performed using four replicates, and results averaged and plotted on graphs, +/−1 s.d.
structure (smiles),measurement,setting,value
CO[C@@H]1[C@@H](OC(=O)c2ccc(C)[nH]2)[C@@H](O)[C@H](Oc2ccc3c(O)c(NC(=O)c4c[nH]c(C(=O)Nc5c(O)c6ccc(O[C@@H]7OC(C)(C)[C@H](OC)[C@@H](OC(=O)c8ccc(C)[nH]8)[C@H]7O)c(C)c6oc5=O)c4C)c(=O)oc3c2C)OC1(C)C [CA1],Mcm2 S53 and S139 phosphorylation,[1],no phosphorylation changes
same,"phosphorylation of Cdk2 targets Rb, Cdc6 (S54P) and Cdk1 target PP1a",[2],no effect on these substrates
same,gyrase inhibition,[3],"known to inhibit the bacterial type-2 topoisomerase, gyrase"
same,gamma-H2AX and Parp cleavage,[4],HaCaT cells will eventually incur DNA damage and Parp cleavage
same,IC50,"[5]; Homo sapiens, 72 hr, all three tumor lines (Psn1, H460, 143B), read-out: tumor line viability IC50 estimates",1 to 4 µM
same,sensitivity of tumor lines relative to HaCaT,"[5]; Psn1, H460, 143B vs HaCaT, 4320 min",4-10 times
